{
  "source": "patent EP0007672A1",
  "about": "“Isocyanoalkenes, process and useful intermediates for their preparation, pharmaceutical and fungicidal preparations containing those isocyanoalkenes and the use of the fungicidal preparations in agriculture” (GIST-BROCADES N.V., priority 1978, dated 1980)",
  "experiment_in_all_cases": "MIC (Minimum Inhibitory Concentration)",
  "format_in_all_cases": "cell-based",
  "key": {"[1]": {"test_system": "Trichophyton schoenleinii", "conditions": "Trichophyton schoenleinii 435-63; read-out: MIC values", "from_the_text": "(§1) In addition they may be used for combatting plant diseases, in particular as fungicides. A list of MIC (Minimum Inhibitory Concentration) values for a number of microorganisms is listed herebelow. The figures in the column headings refer to the compounds prepared according to the experimental examples in comparison with the spectrum of 1-[2-(2,4-dichlorophenyl)-2-{(2,4-dichlorophenyl)-methoxy} -ethyl7-1H-imidazole (better known under the name of miconazole, c.f. Merck Index 9th Ed. page 6047) or natamycin (pimaricin, c.f. Merck Index 9th Ed. page 7233)."}, "Pasteurella multocida": {"test_system": "Pasteurella multocida", "conditions": "Pasteurella multocida A 723; read-out: MIC values", "from_the_text": "as §1"}, "Trichophyton violoceum": {"test_system": "Trichophyton violoceum", "conditions": "Trichophyton violoceum 442-62; read-out: MIC values", "from_the_text": "as §1"}, "Candida albicans": {"test_system": "Candida albicans", "from_the_text": "as §1"}, "[2]": {"test_system": "Trichophyton mentagrophytus", "from_the_text": "as §1"}, "Trichophyton tonsurans": {"test_system": "Trichophyton tonsurans", "conditions": "Trichophyton tonsurans 561-50; read-out: MIC values", "from_the_text": "as §1"}, "Trichophyton equinum": {"test_system": "Trichophyton equinum", "from_the_text": "as §1"}, "Trichophyton rubrum": {"test_system": "Trichophyton rubrum", "from_the_text": "as §1"}, "[3]": {"test_system": "Streptococcus haemolyticus", "conditions": "Streptococcus haemolyticus A 1088; read-out: MIC values", "from_the_text": "as §1"}, "Trichophyton quickeaneum": {"test_system": "Trichophyton quickeaneum", "conditions": "Trichophyton quickeaneum A 2040; read-out: MIC values", "from_the_text": "as §1"}, "[4]": {"conditions": "Candida albicans A 7, read-out: MIC values"}, "[5]": {"conditions": "Candida albicans A 3140, read-out: MIC values"}, "[6]": {"conditions": "Candida albicans A 3141, read-out: MIC values"}, "[7]": {"conditions": "Candida albicans A 3142, read-out: MIC values"}, "[8]": {"conditions": "Candida albicans A 3143, read-out: MIC values"}, "[9]": {"conditions": "Candida albicans A 3144, read-out: MIC values"}, "[10]": {"conditions": "Candida albicans A 3145, read-out: MIC values"}, "[11]": {"conditions": "Candida albicans A 3165, read-out: MIC values"}, "[12]": {"conditions": "Candida albicans A 3166, read-out: MIC values"}, "[13]": {"conditions": "Candida albicans A 3167, read-out: MIC values"}, "[14]": {"conditions": "Candida albicans A 3168, read-out: MIC values"}, "[15]": {"conditions": "Candida albicans A 3169, read-out: MIC values"}, "[16]": {"conditions": "Candida albicans A 3171, read-out: MIC values"}, "[17]": {"conditions": "Candida albicans A 3184, read-out: MIC values"}, "[18]": {"conditions": "Candida albicans A 3190, read-out: MIC values"}, "[19]": {"conditions": "Candida albicans A 3191, read-out: MIC values"}, "[20]": {"conditions": "Candida albicans A 3192, read-out: MIC values"}, "[21]": {"conditions": "Candida albicans A 3194, read-out: MIC values"}, "[22]": {"conditions": "Candida albicans A 3196, read-out: MIC values"}, "[23]": {"conditions": "Trichophyton mentagrophytus 367-68, read-out: MIC values"}, "[24]": {"conditions": "Trichophyton mentagrophytus 421-67, read-out: MIC values"}, "[25]": {"conditions": "Trichophyton mentagrophytus A 3252, read-out: MIC values"}, "[26]": {"conditions": "Trichophyton mentagrophytus R 177, read-out: MIC values"}, "[27]": {"conditions": "Trichophyton mentagrophytus R 178, read-out: MIC values"}, "[28]": {"conditions": "Trichophyton mentagrophytus RRL 305, read-out: MIC values"}, "[29]": {"conditions": "Trichophyton equinum 182-76, read-out: MIC values"}, "[30]": {"conditions": "Trichophyton equinum 856-71, read-out: MIC values"}, "[31]": {"conditions": "Trichophyton rubrum 218-65, read-out: MIC values"}, "[32]": {"conditions": "Trichophyton rubrum 494-62, read-out: MIC values"}, "[33]": {"conditions": "Trichophyton rubrum A 810, read-out: MIC values"}},
  "note": "Like-named read-outs stand apart in the source and are kept apart here.",
  "data": [
    {"smiles": "[C-]#[N+]C(=C(C)c1ccccc1)S(=O)(=O)c1ccc(C)cc1", "note": "[Example 12, 2-phenyl-1-isocyano-1-(4-toluenesulphonyl)-1-propene]", "values": [
      {"measurement": "MIC", "setting": "[1]", "result": 1.5, "unit": "µg/mL"},
      {"measurement": "MIC", "setting": "Pasteurella multocida", "result": 3, "unit": "µg/mL"},
      {"measurement": "MIC", "setting": "Trichophyton violoceum", "result": 3, "unit": "µg/mL"},
      {"measurement": "MIC", "setting": "Candida albicans; [4]", "result": 3, "unit": "µg/mL"},
      {"measurement": "MIC", "setting": "Candida albicans; [5]", "result": 6, "unit": "µg/mL"},
      {"measurement": "MIC", "setting": "Candida albicans; [6]", "result": 6, "unit": "µg/mL"},
      {"measurement": "MIC", "setting": "Candida albicans; [7]", "result": 6, "unit": "µg/mL"},
      {"measurement": "MIC", "setting": "Candida albicans; [8]", "result": 6, "unit": "µg/mL"},
      {"measurement": "MIC", "setting": "Candida albicans; [9]", "result": 3, "unit": "µg/mL"},
      {"measurement": "MIC", "setting": "Candida albicans; [10]", "result": 3, "unit": "µg/mL"},
      {"measurement": "MIC", "setting": "Candida albicans; [11]", "result": 3, "unit": "µg/mL"},
      {"measurement": "MIC", "setting": "Candida albicans; [12]", "result": 3, "unit": "µg/mL"},
      {"measurement": "MIC", "setting": "Candida albicans; [13]", "result": 3, "unit": "µg/mL"},
      {"measurement": "MIC", "setting": "Candida albicans; [14]", "result": 6, "unit": "µg/mL"},
      {"measurement": "MIC", "setting": "Candida albicans; [15]", "result": 6, "unit": "µg/mL"},
      {"measurement": "MIC", "setting": "Candida albicans; [16]", "result": 6, "unit": "µg/mL"},
      {"measurement": "MIC", "setting": "Candida albicans; [17]", "result": 6, "unit": "µg/mL"},
      {"measurement": "MIC", "setting": "Candida albicans; [18]", "result": 6, "unit": "µg/mL"},
      {"measurement": "MIC", "setting": "Candida albicans; [19]", "result": 6, "unit": "µg/mL"},
      {"measurement": "MIC", "setting": "Candida albicans; [20]", "result": 3, "unit": "µg/mL"},
      {"measurement": "MIC", "setting": "Candida albicans; [21]", "result": 3, "unit": "µg/mL"},
      {"measurement": "MIC", "setting": "Candida albicans; [22]", "result": 6, "unit": "µg/mL"},
      {"measurement": "MIC", "setting": "[2]; [23]", "result": 12.5, "unit": "µg/mL"},
      {"measurement": "MIC", "setting": "[2]; [24]", "result": 6, "unit": "µg/mL"},
      {"measurement": "MIC", "setting": "[2]; [25]", "result": 6, "unit": "µg/mL"},
      {"measurement": "MIC", "setting": "[2]; [26]", "result": 3, "unit": "µg/mL"},
      {"measurement": "MIC", "setting": "[2]; [27]", "result": 6, "unit": "µg/mL"},
      {"measurement": "MIC", "setting": "[2]; [28]", "result": 25, "unit": "µg/mL"},
      {"measurement": "MIC", "setting": "Trichophyton tonsurans", "result": 0.1, "unit": "µg/mL"},
      {"measurement": "MIC", "setting": "Trichophyton equinum; [29]", "result": 12.5, "unit": "µg/mL"},
      {"measurement": "MIC", "setting": "Trichophyton equinum; [30]", "result": 6, "unit": "µg/mL"},
      {"measurement": "MIC", "setting": "Trichophyton rubrum; [31]", "result": 3, "unit": "µg/mL"},
      {"measurement": "MIC", "setting": "Trichophyton rubrum; [32]", "result": 6, "unit": "µg/mL"},
      {"measurement": "MIC", "setting": "Trichophyton rubrum; [33]", "result": 3, "unit": "µg/mL"},
      {"measurement": "MIC", "setting": "[3]", "result": 50, "unit": "µg/mL"},
      {"measurement": "MIC", "setting": "Trichophyton quickeaneum", "result": 6, "unit": "µg/mL"}
    ]},
    {"smiles": "[C-]#[N+]C(=CCCC)S(=O)(=O)c1ccc(C)cc1", "note": "[Example 24, 1-isocyano-1-(4-toluenesulphonyl)-1-pentene]", "values": [
      {"measurement": "MIC", "setting": "[1]", "result": 25, "unit": "µg/mL"},
      {"measurement": "MIC", "setting": "Pasteurella multocida", "result": 50, "unit": "µg/mL"},
      {"measurement": "MIC", "setting": "Trichophyton violoceum", "result": 25, "unit": "µg/mL"},
      {"measurement": "MIC", "setting": "Candida albicans; [4]", "result": 25, "unit": "µg/mL"},
      {"measurement": "MIC", "setting": "Candida albicans; [5]", "result": 25, "unit": "µg/mL"},
      {"measurement": "MIC", "setting": "Candida albicans; [6]", "result": 25, "unit": "µg/mL"},
      {"measurement": "MIC", "setting": "Candida albicans; [7]", "result": 3, "unit": "µg/mL"},
      {"measurement": "MIC", "setting": "Candida albicans; [8]", "result": 12.5, "unit": "µg/mL"},
      {"measurement": "MIC", "setting": "Candida albicans; [9]", "result": 12.5, "unit": "µg/mL"},
      {"measurement": "MIC", "setting": "Candida albicans; [10]", "result": 12.5, "unit": "µg/mL"},
      {"measurement": "MIC", "setting": "Candida albicans; [11]", "result": 25, "unit": "µg/mL"},
      {"measurement": "MIC", "setting": "Candida albicans; [12]", "result": 50, "unit": "µg/mL"},
      {"measurement": "MIC", "setting": "Candida albicans; [13]", "result": 50, "unit": "µg/mL"},
      {"measurement": "MIC", "setting": "Candida albicans; [14]", "result": 50, "unit": "µg/mL"},
      {"measurement": "MIC", "setting": "Candida albicans; [15]", "result": 25, "unit": "µg/mL"},
      {"measurement": "MIC", "setting": "Candida albicans; [16]", "result": 25, "unit": "µg/mL"},
      {"measurement": "MIC", "setting": "Candida albicans; [17]", "result": 25, "unit": "µg/mL"},
      {"measurement": "MIC", "setting": "Candida albicans; [18]", "result": 25, "unit": "µg/mL"},
      {"measurement": "MIC", "setting": "Candida albicans; [19]", "result": 25, "unit": "µg/mL"},
      {"measurement": "MIC", "setting": "Candida albicans; [20]", "result": 25, "unit": "µg/mL"},
      {"measurement": "MIC", "setting": "Candida albicans; [21]", "result": 25, "unit": "µg/mL"},
      {"measurement": "MIC", "setting": "Candida albicans; [22]", "result": 25, "unit": "µg/mL"},
      {"measurement": "MIC", "setting": "[2]; [23]", "result": 100, "unit": "µg/mL"},
      {"measurement": "MIC", "setting": "[2]; [24]", "result": 50, "unit": "µg/mL"},
      {"measurement": "MIC", "setting": "[2]; [25]", "result": 25, "unit": "µg/mL"},
      {"measurement": "MIC", "setting": "[2]; [26]", "result": 25, "unit": "µg/mL"},
      {"measurement": "MIC", "setting": "[2]; [27]", "result": 25, "unit": "µg/mL"},
      {"measurement": "MIC", "setting": "[2]; [28]", "result": 50, "unit": "µg/mL"},
      {"measurement": "MIC", "setting": "Trichophyton tonsurans", "result": 25, "unit": "µg/mL"},
      {"measurement": "MIC", "setting": "Trichophyton equinum; [29]", "result": 50, "unit": "µg/mL"},
      {"measurement": "MIC", "setting": "Trichophyton equinum; [30]", "result": 50, "unit": "µg/mL"},
      {"measurement": "MIC", "setting": "Trichophyton rubrum; [31]", "result": 25, "unit": "µg/mL"},
      {"measurement": "MIC", "setting": "Trichophyton rubrum; [32]", "result": 50, "unit": "µg/mL"},
      {"measurement": "MIC", "setting": "Trichophyton rubrum; [33]", "result": 25, "unit": "µg/mL"},
      {"measurement": "MIC", "setting": "[3]", "result": 100, "unit": "µg/mL"},
      {"measurement": "MIC", "setting": "Trichophyton quickeaneum", "result": 100, "unit": "µg/mL"}
    ]}
  ]
}
